These results are taken from patent US7449454B2, “Metallotexaphyrin derivatives” (Pharmacyclics, Inc., priority 2000, dated 2008).

The nature of data set [1]: Extinction coefficient by UV/Vis. Conditions: for ε(methanol): in M-1·cm-1 (unit assumed). Type of data set: physicochemical. The protocol:
Four samples of increasing amounts of a test compound of Formula I (between 3 mg and 11 mg) were put into separate 10 ml flasks and dissolved in methanol. Each of the solutions and one control sample (containing no test compound) were diluted to volume. The absorption at 475 nm was measured by UV/Vis and recorded for each of the five samples. The extinction coefficient for each sample was determined accordingly.
The extinction coefficient for the test compound at 475 nm was determined by averaging the extinction coefficient for the four samples (not including the control). The above steps were repeated (at 733 nm) to determine the extinction coefficient for the test compound at 733 nm. When determining the extinction coefficient of aggregated test compounds LuTex acetate, cholate or deoxycholate, the extinction coefficient at 733 nm is not measured. Instead, the above steps were repeated substituting 4% acetic acid/methanol for methanol.

Data set [2] can be described thus: Solution pH in deionized water. The class given is physicochemical. Conditions: H2O. The protocol: The test compound was mixed in 5 ml of deionized water to achieve a 2 mg/ml solution. The solution pH was measured using a Beckman pH meter.
Data set [3] is described as follows: Octanol/water partition coefficient. Type of data set: physicochemical. On the procedure:
The partition coefficient was measured using an adaptation of the procedure outlined in Drug Stability: Principles and Practices (AAI, Inc. Wilmington, N.C., 2nd Edition, 1995). A 10 ml solution of 10 mg/ml of the test compound of Formula I dissolved in deionized water was placed in a separator funnel, to which 10 ml of 1-octanol was added. The combined mixture was stirred. The mixture was left to separate and the absorption of the compound was measured in the water phase and in the octanol phase by UV/Vis at 413-417 nm (413-417 offers the closest match in absorbance between the octanol phase and the water phase. The octanol water partition coefficient is determined by the formula: […]
The above steps were then repeated using a 10 ml sample of test compound at 1.0 mg/ml.

Data set [4] in a line: Plasma concentration after injection in atherosclerotic rabbits. The class given is in vivo, NZW rabbits. Conditions: rabbit, 10 mg/kg injected, 2 mg/ml solution. The protocol:
Plasma pK and biodistribution of the different test compounds of Formula I in plaque are determined and compared with the plasma pK and biodistribution in normal arterial walls. Sixteen normal male NZW rabbits, each weighing 3.5-4.0 kg are obtained from R&R Rabbitry in Stanwood Oreg. Each rabbit is given an intramuscular injection of Ketamine/Rompun [(8.4 mg/kg)/(1.2 mg/kg)] and allowed to relax until the anesthetic takes effect. To induce deep anesthesia, the rabbits then receive a second dose of Ketamine/Rompun [(8.4 mg/kg)/1.2 mg/kg)] via intravenous injection. To expose the abdomen and back legs, each rabbit is shaved with a size 40 blade. Their eyes are coated with lubricant eye ointment (Artificial Tears).
A femoral artery cut down is performed on the right side of the rabbits. Lidocaine (2%) is injected subcutaneously around the femoral artery as a local anesthetic and also applied topically to prevent spasms. A No.4 French Fogarty balloon embolectomy catheter is inserted retrograde 15 cm into the abdominal aorta. The balloon is inflated with 0.5-0.75 ml of hypaque contrast and pulled 3.5 cm distally toward the femoral artery six times. The catheter is then withdrawn. […]
A 3 ml blood sample is taken from each of the rabbits and the cholesterol level for each sample is determined and recorded. […]
The clearance rate of the test compound is also particularly important to measure. Plasma samples from each of the test compounds (see part A of this example) are mixed with 10 mM Triton X-100 and the fluorescence optimum is measured at 745 nm by scanning between 700-800 nm using a 450 nm excitation. A standard curve is run to insure that the fluorescence of the samples lies on the linear portion of the curve. The entire fluorescence emission spectrum is observed by using both a monochromator and CCD array. This permits differentiating between the peak at 745 nm and any possible extraneous fluorescence that might have a different optimum, and tail off into the 745 nm region. Test compound accumulation is expressed as μg drug/g tissue (wet weight) or μg/ml in plasma.

Data set [5] in a line: Solubility in H2O (deionized water).
Description: This mixture was then shaken, and 1.5 ml of the supernatant removed by a syringe equipped with a 0.22 μm filter unit. After discarding the first 1 mL of the filtrate, the remaining 0.5 mL was collected and saved. 0.1 ml of the saved filtrate was added to a 25 ml flask and diluted with 4% Acetic Acid/Methanol solution to volume. The absorption of the diluted solution at 475 nm was measured by UVN is at 1, 4, and 24 hours after the solutions had been shaken as described above.

In turn, “The lutetium (III) complex of: 4,5-diethyl-10,23-dimethyl-9,24-bis(3-hydroxypropyl)-16,17-bis[2-[2-(2-methoxyethoxy)ethoxy]ethoxy]pentaazapentacyclo[20.2.1.1^3,6.1^8,11.0^14,19]-heptacosa-1,3,5,7,9,11 (27),12,14,16,18,20,22(25),23-tridecaene bis deoxycholate [LuTex bis deoxycholate]” returned a ε(4% acetate/methanol) in data set [1] (4% acetate/methanol, wavelength not given) of 135000 M⁻¹ cm⁻¹. Besides, the “ε(methanol)” value in data set [1] (wavelength not printed (aggregated compound, 733 nm not measured)) is 136000.
As for “The lutetium (III) complex of: 4,5-diethyl-10,23-dimethyl-9,24-bis(3-hydroxypropyl)-16,17-bis[2-[2-(2-methoxyethoxy)ethoxy]ethoxy]pentaazapentacyclo[20.2.1.1^3,6.1^8,11.0^14,19]-heptacosa-1,3,5,7,9,11(27),12,14,16,18,20,22(25), 23-tridecaene bis benzoate [LuTex bis benzoate]”, the pH in data set [2] is 6.1. In addition, in data set [3] (0.05 mg/ml), the “K (octanol/water)” value is 0.34. Moreover, the “pH(octanol/water)” value in data set [3] (0.05 mg/ml) amounted to 6.6. Further, the results for the “ε(methanol)” value in data set [1] (at 475 nm) and in data set [1] (at 733 nm) were 122800 and 40600, respectively.
For the substance “The lutetium (III) complex of: 4,5-diethyl-10,23-dimethyl-9,24-bis(3-hydroxypropyl)-16,17-bis[2-[2-(2-methoxyethoxy)ethoxy]ethoxy]pentaazapentacyclo[20.2.1.1^3,6.1^8,11.0^14,19]-heptacosa-1,3,5,7,9,11(27),12,14,16,18,20,22(25), 23-tridecaene bis formate [LuTex bis formate]”, the “Plasma Concentration” value is 3900 ng/mL in data set [4] (1 Hour post injection), 500 ng/mL in data set [4] (5 Hours post injection) and 300 ng/mL in data set [4] (24 Hours post injection). The pH in data set [2] is given as 5.5. Also, the “K (octanol/water)” value in data set [3] (0.05 mg/ml) and in data set [3] (0.5 mg/ml) was 0.02 throughout. For the same substance, the “pH(octanol/water)” value is given as 5.6 in data set [3] (0.05 mg/ml) and 5.1 in data set [3] (0.5 mg/ml). In data set [5], the “solubility in deionized water” value is 2 to 2.5 mg/mL. Moreover, the “ε(methanol)” value in data set [1] (at 475 nm) was determined as 126400; in data set [1] (at 733 nm), 41700.
In the case of “lutetium complex of 4,5-diethyl-10,23-dimethyl-9,24-bis(3-hydroxypropyl)-16,17-bis[2-[2-(2-methoxyethoxy)ethoxy]ethoxy]pentaazapentacyclo-[20.2.1.1^3,6.1^8,11.0^14,19]heptacosa-1,3,5,7,9,11(27),12,14,16,18,20,22(25),23-tridecaene bis gluconate [LuTex bis gluconate]”, the “solubility in deionized water” value in data set [5] was in the range of 50 to 80 mg/mL.
